Assay results taken from US12226424B2, “Target protein degradation compounds, their anti-tumor use, their intermediates and use of intermediates” (ShanghaiTech University, priority 2018, dated 2025).

Columns and labels:
ER protein = molecular target: T1, ER protein (Homo sapiens, UniProt P03372); experiment: Western blot half degradation concentration (DC50) of ER protein in T-47D cells; type: cell-based; details: 24 h, read-out: DC50 (nM)/T-47D cell line
T1 construct: detect the expression of ER protein in T-47D cells; endogenous in cells; host or cells: T-47D
T1 sequence (P03372 1-595): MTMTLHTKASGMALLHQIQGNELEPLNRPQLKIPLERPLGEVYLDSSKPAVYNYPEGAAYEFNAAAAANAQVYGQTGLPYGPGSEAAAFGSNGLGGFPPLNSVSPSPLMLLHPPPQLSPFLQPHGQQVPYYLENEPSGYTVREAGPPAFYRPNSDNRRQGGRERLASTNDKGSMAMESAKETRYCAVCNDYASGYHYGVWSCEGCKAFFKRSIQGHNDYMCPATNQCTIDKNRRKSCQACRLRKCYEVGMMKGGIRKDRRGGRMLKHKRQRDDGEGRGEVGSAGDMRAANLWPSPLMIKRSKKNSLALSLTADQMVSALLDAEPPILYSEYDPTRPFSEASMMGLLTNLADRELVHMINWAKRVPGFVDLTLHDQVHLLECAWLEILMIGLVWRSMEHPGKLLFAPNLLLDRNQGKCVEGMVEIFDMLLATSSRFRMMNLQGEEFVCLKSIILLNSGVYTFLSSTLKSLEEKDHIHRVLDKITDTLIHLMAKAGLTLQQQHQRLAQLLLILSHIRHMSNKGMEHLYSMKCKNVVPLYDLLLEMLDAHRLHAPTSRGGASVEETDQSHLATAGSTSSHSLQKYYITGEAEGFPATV
Experimental: ER positive cells T-47D cells (human breast cancer cells) were purchased from the Cell Bank of the Chinese Academy of Sciences;
The cells used in this present disclosure were cultured in a 37° C. incubator containing 5% CO2. The complete cell culture medium was RPMI 1640 medium with 10% fetal bovine serum, and the final concentrations of penicillin and streptomycin were 100 U/mL, respectively. All cells were tested negative for mycoplasma with mycoplasma detection kit before the experiment.
Western Blot Determination of the Half Degradation Concentration (DC50) of the PROTAD Compounds on Target Proteins
The PROTAD compounds of the present disclosure were tested at 5 concentration of 1 nM, 10 nM, 50 nM, 100 nM, 500 nM, respectively, or 5 concentration gradients of 0.04 nM, 0.2 nM, 1 nM, 10 nM, 50 nM, and DMSO and commercial parent inhibitor groups (tamoxifen, toremifene) were set as negative and positive controls at the same time. After the drug treatment for 24 h, cells were washed twice with PBS, and lyzed by adding 50 μL of SDS lysate to each well for lysis on ice for 5 min.

c-ABL [1] = molecular target: T2, c-ABL (Homo sapiens, UniProt P00519); experiment: Western-blot degradation of c-ABL in K562 cells; details: 24 h
BCR-ABL [2] = molecular target: T3, BCR-ABL (Homo sapiens, UniProt P00519); experiment: Western-blot half-degradation concentration (DC50) / degradation of BCR-ABL in K562 cells; details: 24 h
c-ABL [3] = molecular target: T2, c-ABL; experiment: Western-blot detection of c-ABL protein degradation (FIGS. 1-15); type: cell-based
BCR-ABL [4] = molecular target: T3, BCR-ABL; experiment: Western-blot detection of BCR-ABL protein degradation (FIGS. 1-15); type: cell-based

T2 sequence (P00519 whole entry): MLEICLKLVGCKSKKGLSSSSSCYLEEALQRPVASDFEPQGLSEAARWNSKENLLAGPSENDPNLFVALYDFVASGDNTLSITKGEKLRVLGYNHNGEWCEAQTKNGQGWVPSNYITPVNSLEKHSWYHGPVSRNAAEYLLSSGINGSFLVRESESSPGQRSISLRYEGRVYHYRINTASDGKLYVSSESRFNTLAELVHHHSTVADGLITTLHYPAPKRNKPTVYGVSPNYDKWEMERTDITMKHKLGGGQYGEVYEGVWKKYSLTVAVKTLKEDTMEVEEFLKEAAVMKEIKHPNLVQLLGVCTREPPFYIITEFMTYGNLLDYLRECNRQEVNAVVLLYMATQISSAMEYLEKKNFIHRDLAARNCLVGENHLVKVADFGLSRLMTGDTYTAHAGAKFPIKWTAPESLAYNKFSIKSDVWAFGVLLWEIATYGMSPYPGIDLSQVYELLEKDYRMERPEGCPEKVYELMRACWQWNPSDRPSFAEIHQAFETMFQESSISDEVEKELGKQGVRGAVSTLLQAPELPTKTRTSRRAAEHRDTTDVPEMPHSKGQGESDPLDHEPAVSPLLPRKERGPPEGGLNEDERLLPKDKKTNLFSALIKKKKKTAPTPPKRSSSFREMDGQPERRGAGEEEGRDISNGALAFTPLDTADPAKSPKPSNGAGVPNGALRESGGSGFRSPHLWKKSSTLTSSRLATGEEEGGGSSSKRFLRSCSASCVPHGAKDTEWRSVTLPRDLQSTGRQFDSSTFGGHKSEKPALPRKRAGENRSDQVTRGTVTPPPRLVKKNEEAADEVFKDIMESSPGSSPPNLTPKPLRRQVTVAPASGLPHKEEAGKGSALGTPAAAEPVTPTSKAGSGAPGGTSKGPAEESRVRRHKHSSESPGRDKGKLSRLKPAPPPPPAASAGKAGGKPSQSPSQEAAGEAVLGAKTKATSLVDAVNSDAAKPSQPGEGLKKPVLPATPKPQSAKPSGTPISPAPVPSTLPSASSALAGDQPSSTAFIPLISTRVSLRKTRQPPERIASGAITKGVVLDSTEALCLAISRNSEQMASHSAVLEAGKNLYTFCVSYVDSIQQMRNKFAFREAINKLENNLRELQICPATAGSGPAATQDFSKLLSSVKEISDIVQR
T3 sequence (P00519 with tags, fused parts or gaps): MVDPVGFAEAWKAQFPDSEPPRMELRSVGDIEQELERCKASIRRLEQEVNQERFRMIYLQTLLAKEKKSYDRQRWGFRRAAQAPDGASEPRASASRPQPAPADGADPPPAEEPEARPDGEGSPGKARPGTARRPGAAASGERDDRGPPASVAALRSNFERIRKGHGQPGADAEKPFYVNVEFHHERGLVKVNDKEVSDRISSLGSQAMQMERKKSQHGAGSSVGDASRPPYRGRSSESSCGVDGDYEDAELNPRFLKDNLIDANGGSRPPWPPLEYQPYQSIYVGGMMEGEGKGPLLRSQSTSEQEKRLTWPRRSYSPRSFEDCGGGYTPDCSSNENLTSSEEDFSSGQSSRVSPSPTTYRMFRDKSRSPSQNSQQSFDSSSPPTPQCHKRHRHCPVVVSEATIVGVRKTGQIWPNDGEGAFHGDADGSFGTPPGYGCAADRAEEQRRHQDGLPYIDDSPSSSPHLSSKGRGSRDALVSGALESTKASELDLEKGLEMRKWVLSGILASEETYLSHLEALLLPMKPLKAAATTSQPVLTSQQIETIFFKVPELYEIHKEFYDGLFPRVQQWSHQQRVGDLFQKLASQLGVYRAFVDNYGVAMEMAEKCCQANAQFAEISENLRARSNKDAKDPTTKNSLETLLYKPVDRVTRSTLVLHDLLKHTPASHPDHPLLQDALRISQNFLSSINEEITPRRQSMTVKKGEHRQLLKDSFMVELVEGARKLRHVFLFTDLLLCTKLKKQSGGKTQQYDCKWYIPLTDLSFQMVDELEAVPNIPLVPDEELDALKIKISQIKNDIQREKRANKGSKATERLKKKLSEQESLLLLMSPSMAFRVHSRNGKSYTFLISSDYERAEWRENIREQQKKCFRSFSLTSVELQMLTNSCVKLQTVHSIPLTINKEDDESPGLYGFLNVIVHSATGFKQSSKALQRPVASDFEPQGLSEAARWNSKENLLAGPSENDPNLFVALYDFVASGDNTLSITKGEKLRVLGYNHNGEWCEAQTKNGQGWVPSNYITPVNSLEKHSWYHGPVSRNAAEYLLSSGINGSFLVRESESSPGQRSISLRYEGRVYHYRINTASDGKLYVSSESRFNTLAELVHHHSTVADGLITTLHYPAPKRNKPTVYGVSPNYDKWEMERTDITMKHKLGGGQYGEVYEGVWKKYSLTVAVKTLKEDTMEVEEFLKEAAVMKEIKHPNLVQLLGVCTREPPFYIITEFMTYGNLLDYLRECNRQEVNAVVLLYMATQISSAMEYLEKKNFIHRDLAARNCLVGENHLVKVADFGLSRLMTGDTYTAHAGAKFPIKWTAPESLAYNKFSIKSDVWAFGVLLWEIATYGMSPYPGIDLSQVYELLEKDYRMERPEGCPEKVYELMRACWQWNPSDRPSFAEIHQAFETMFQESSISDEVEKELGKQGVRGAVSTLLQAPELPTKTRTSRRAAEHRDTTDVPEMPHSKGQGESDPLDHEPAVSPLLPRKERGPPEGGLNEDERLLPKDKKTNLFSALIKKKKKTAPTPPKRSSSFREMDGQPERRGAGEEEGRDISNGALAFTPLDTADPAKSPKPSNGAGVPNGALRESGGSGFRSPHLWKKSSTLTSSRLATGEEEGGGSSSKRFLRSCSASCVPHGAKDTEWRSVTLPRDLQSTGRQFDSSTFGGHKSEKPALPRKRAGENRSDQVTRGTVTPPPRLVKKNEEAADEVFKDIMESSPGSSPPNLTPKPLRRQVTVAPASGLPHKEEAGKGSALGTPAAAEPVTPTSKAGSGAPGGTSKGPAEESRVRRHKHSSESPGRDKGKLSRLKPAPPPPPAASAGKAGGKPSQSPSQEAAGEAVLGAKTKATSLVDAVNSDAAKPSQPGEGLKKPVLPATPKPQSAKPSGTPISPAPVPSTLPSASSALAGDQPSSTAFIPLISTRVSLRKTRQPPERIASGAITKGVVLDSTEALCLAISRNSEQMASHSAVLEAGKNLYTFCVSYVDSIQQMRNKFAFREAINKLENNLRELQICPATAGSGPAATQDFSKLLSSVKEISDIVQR

Compound | DC50 (ER protein) [nM] | degradation of c-ABL protein (Western-blot) (c-ABL [1]) | degradation of BCR-ABL protein (Western-blot) (BCR-ABL [2]) | ability to degrade c-ABL protein (Western-blot, in words) (c-ABL [3]) | ability to degrade BCR-ABL protein (Western-blot, in words) (BCR-ABL [4])
CCC(=C(c1ccc(O)cc1)c1ccc(OCCNC(=O)CCCCCCSc2cccc3c2C(=O)N(C2CCC(=O)NC2=O)C3=O)cc1)c1ccc(O)cc1 (stereo not drawn) [SIAIS208170, N-(2-(4-(1,2-bis(4-hydroxyphenyl)but-1-en-1-yl)phenoxy)ethyl)-7-((2-(2,6-dioxopiperidin-3-yl)-1,3-dioxoisoindolin-4-yl)thio)heptanamide] | 10 | – | – | – | –
Cc1nc(Nc2ncc(C(=O)Nc3c(C)cccc3Cl)s2)cc(N2CCN(C(=O)CNc3cccc4c3C(=O)N(C3CCC(=O)NC3=O)C4=O)CC2)n1 (stereo not drawn) [SIAIS151072, N-(2-chloro-6-methylphenyl)-2-((6-(4-((2-(2,6-dioxopiperidin-3-yl)-1,3-dioxoisoindolin-4-yl)aminoacetyl)piperazin-1-yl)-2-methylpyrimidin-4-yl)amino)thiazole-5-carboxamide] | – | significantly weaker ability to degrade BCR-ABL and c-ABL proteins | significantly weaker ability to degrade BCR-ABL and c-ABL proteins | significantly weaker ability to degrade | significantly weaker ability to degrade
CCC(=C(c1ccc(O)cc1)c1ccc(OCCNC(=O)CCCCCCSc2cccc3c2CN(C2CCC(=O)NC2=O)C3=O)cc1)c1ccc(O)cc1 (stereo not drawn) [SIAIS208171, N-(2-(4-(1,2-bis(4-hydroxyphenyl)but-1-en-1-yl)phenoxy)ethyl)-7-((2-(2,6-dioxopiperidin-3-yl)-1-oxoisoindolin-4-yl)thio)heptanamide] | 10 | – | – | – | –
